“And” between values parts separate entries of the source, which are not always exact repeats. Equal values may be shown once. Toxic doses and inconclusive results are not listed. Cut-off read from the data, not from the text of the source: active = T/C of 150% or more; inactive = T/C below 125%.
Tested on: L1210 leukemia ip in BDF1 mice, survival T/C
Assay: NCI In Vivo Anticancer Drug Screen. Data for tumor model L1210 Leukemia (intraperitoneal) in B6D2F1 (BDF1) mice
Conditions: endpoint: mean survival time, higher = longer survival
Outline: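 Transplanted-tumor mice were given test agent; controls received vehicle only. Survival readings from the two groups were divided (treated over control).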

[1] = dose: 100.0 mg/kg/injection, schedule: Q01DX001 (ip), vehicle: carboxymethylcellulose (CMC)
[2] = dose: 200.0 mg/kg/injection, schedule: Q01DX001 (ip), vehicle: carboxymethylcellulose (CMC)
[3] = dose: 400.0 mg/kg/injection, schedule: Q01DX001 (ip), vehicle: carboxymethylcellulose (CMC)
[4] = dose: 100.0 mg/kg/injection, schedule: Q01DX001 (ip), vehicle: saline
[5] = dose: 100.0 mg/kg/injection, schedule: Q01DX009 (ip), vehicle: saline
[6] = dose: 200.0 mg/kg/injection, schedule: Q01DX001 (ip), vehicle: saline
[7] = dose: 200.0 mg/kg/injection, schedule: Q01DX009 (ip), vehicle: saline
[8] = dose: 400.0 mg/kg/injection, schedule: Q01DX001 (ip), vehicle: saline
[9] = dose: 100.0 mg/kg/injection, schedule: Q04DX002 (ip), vehicle: saline
[10] = dose: 200.0 mg/kg/injection, schedule: Q04DX002 (ip), vehicle: saline
[11] = dose: 400.0 mg/kg/injection, schedule: Q01DX009 (ip), vehicle: saline
[12] = dose: 400.0 mg/kg/injection, schedule: Q04DX002 (ip), vehicle: saline
[13] = dose: 100.0 mg/kg/injection, schedule: Q04DX003 (ip), vehicle: Klucel (hydroxypropylcellulose) (HPC)
[14] = dose: 200.0 mg/kg/injection, schedule: Q04DX003 (ip), vehicle: Klucel (hydroxypropylcellulose) (HPC)
[15] = dose: 400.0 mg/kg/injection, schedule: Q04DX003 (ip), vehicle: Klucel (hydroxypropylcellulose) (HPC)
[16] = dose: 100.0 mg/kg/injection, schedule: Q01DX009 (ip), vehicle: saline with Tween-80
[17] = dose: 200.0 mg/kg/injection, schedule: Q01DX009 (ip), vehicle: saline with Tween-80
[18] = dose: 100.0 mg/kg/injection, schedule: Q01DX009 (ip), vehicle: Klucel (hydroxypropylcellulose) (HPC)
[19] = dose: 200.0 mg/kg/injection, schedule: Q01DX009 (ip), vehicle: Klucel (hydroxypropylcellulose) (HPC)
[20] = dose: 400.0 mg/kg/injection, schedule: Q01DX009 (ip), vehicle: Klucel (hydroxypropylcellulose) (HPC)

Measured: T/C

CCC(CC)(CC#N)C1CCCCC1
inactive: dose: 50.0 mg/kg/injection, schedule: Q01DX001 (ip), vehicle: carboxymethylcellulose (CMC) 98 % of control | [1] 104 % of control | [2] 98 % of control | [3] 104 % of control

CC(C)(C)C#CCCl
inactive: [4] 96 % of control | [5] 116 % of control | [6] 105 % of control | [7] 97 % of control | [8] 94 % of control

CCOC(=O)C(Cc1ccccc1[N+](=O)[O-])C(=O)OCC
inactive: [4] 103 % of control | [5] 103 % of control and 89 % of control | [9] 112 % of control and 113 % of control | dose: 100.0 mg/kg/injection, schedule: Q04DX003 (ip), vehicle: saline 94 % of control | [6] 101 % of control | [7] 93 % of control and 105 % of control | [10] 108 % of control | dose: 200.0 mg/kg/injection, schedule: Q04DX003 (ip), vehicle: saline 103 % of control | [8] 100 % of control | [11] 96 % of control and 105 % of control | [12] 102 % of control and 108 % of control | dose: 400.0 mg/kg/injection, schedule: Q04DX003 (ip), vehicle: saline 103 % of control

O=C(OCC1OC(n2ccc(=O)nc2[Se])C(OC(=O)c2ccccc2)C1OC(=O)c1ccccc1)c1ccccc1 (centres undefined)
inactive: dose: 100.0 mg/kg/injection, schedule: Q01DX005 (ip), vehicle: saline 89 % of control | dose: 200.0 mg/kg/injection, schedule: Q01DX005 (ip), vehicle: saline 96 % of control

C/C(=N/O)c1ccncc1
inactive: [13] 100 % of control | [14] 95 % of control | [15] 95 % of control

COc1nc(N/N=C/c2ccccc2O)ccc1[N+](=O)[O-]
inactive: [13] 93 % of control | [14] 93 % of control | [15] 95 % of control

Cn1c(=O)cn[nH]c1=O
inactive: dose: 50.0 mg/kg/injection, schedule: Q01DX009 (ip), vehicle: saline with Tween-80 100 % of control | [16] 108 % of control | [17] 103 % of control

CCCCCCCCCCCCNC(=O)c1ccc[n+](Cc2ccccc2)c1
inactive: dose: 5.0 mg/kg/injection, schedule: Q01DX009 (ip), vehicle: saline 102 % of control | dose: 5.0 mg/kg/injection, schedule: Q04DX003 (ip), vehicle: saline sonified 101 % of control | dose: 10.0 mg/kg/injection, schedule: Q01DX009 (ip), vehicle: saline 98 % of control | dose: 10.0 mg/kg/injection, schedule: Q04DX003 (ip), vehicle: saline sonified 106 % of control

CCOCCS(=O)(=O)CCS(=O)(=O)CCOCC
inactive: [5] 95 % of control | [7] 103 % of control | [11] 108 % of control

CCCC(=O)N1C(C)CCCC1C (centres undefined)
inactive: [9] 117 % of control | [10] 101 % of control | [12] 93 % of control

CCCCCCCNC1=C(C)C(=O)C(NCCCCCCC)=C(C)C1=O
inactive: [1] 96 % of control | [4] 93 % of control | [2] 96 % of control | [6] 96 % of control | [3] 89 % of control | [8] 93 % of control

O=C(COc1ccc(Cl)cc1)Nc1cccc([N+](=O)[O-])c1
inactive: [16] 96 % of control | [17] 92 % of control | dose: 400.0 mg/kg/injection, schedule: Q01DX009 (ip), vehicle: saline with Tween-80 90 % of control

CC(C)(C)OC(=O)C(CSSCC(NC(=O)OCc1ccccc1)C(=O)OC(C)(C)C)NC(=O)OCc1ccccc1 (centres undefined)
inactive: [18] 98 % of control | [13] 98 % of control | [19] 107 % of control | [14] 96 % of control | [20] 107 % of control | [15] 96 % of control

Cc1ccc(S(=O)(=O)OCCN(CCOS(=O)(=O)c2ccc(C)cc2)c2ccccc2)cc1
inactive: dose: 7.5 mg/kg/injection, schedule: Q01DX015 (ip), vehicle: carboxymethylcellulose (CMC) 109 % of control | dose: 50.0 mg/kg/injection, schedule: Q01DX001 (ip), vehicle: saline 117 % of control | dose: 60.0 mg/kg/injection, schedule: Q01DX015 (ip), vehicle: carboxymethylcellulose (CMC) 122 % of control | [4] 115 % of control

COC(C#N)C(O)(c1ccccc1)c1ccccc1 (centres undefined)
inactive: dose: 75.0 mg/kg/injection, schedule: Q01DX001 (ip), vehicle: other 94 % of control | dose: 150.0 mg/kg/injection, schedule: Q01DX001 (ip), vehicle: other 100 % of control

COc1ccc(C(=O)NC(=S)Nc2cccc(Cl)c2)cc1
inactive: [18] 91 % of control | [13] 94 % of control | [19] 98 % of control | [14] 91 % of control | [20] 87 % of control | [15] 93 % of control

Cc1ccc(CN(CCO)Cc2ccccc2)cc1
inactive: dose: 3.12 mg/kg/injection, schedule: Q01DX009 (ip), vehicle: water 86 % of control | dose: 6.25 mg/kg/injection, schedule: Q01DX009 (ip), vehicle: water 89 % of control | dose: 12.5 mg/kg/injection, schedule: Q01DX009 (ip), vehicle: water 93 % of control and 100 % of control | dose: 50.0 mg/kg/injection, schedule: Q01DX009 (ip), vehicle: water 93 % of control

O=C(C=c1sc(=CC(=O)c2ccccc2)s1)c1ccccc1
inactive: dose: 100.0 mg/kg/injection, schedule: Q01DX001 (ip), vehicle: Klucel (hydroxypropylcellulose) (HPC) 97 % of control | dose: 200.0 mg/kg/injection, schedule: Q01DX001 (ip), vehicle: Klucel (hydroxypropylcellulose) (HPC) 97 % of control | dose: 400.0 mg/kg/injection, schedule: Q01DX001 (ip), vehicle: Klucel (hydroxypropylcellulose) (HPC) 97 % of control

O=C(OCCCC(C(=O)c1ccccc1)=P(c1ccccc1)(c1ccccc1)c1ccccc1)c1ccccc1
inactive: dose: 100.0 mg/kg/injection, schedule: Q01DX001 (ip), vehicle: saline with Tween-80 104 % of control | dose: 200.0 mg/kg/injection, schedule: Q01DX001 (ip), vehicle: saline with Tween-80 93 % of control | dose: 400.0 mg/kg/injection, schedule: Q01DX001 (ip), vehicle: saline with Tween-80 93 % of control

CCCCCc1ccc(C)cc1OC(=O)CCl
inactive: dose: 28.0 mg/kg/injection, schedule: Q01DX Z (ip), vehicle: methylcellulose (MC) 97 % of control | dose: 42.0 mg/kg/injection, schedule: Q01DX Z (ip), vehicle: methylcellulose (MC) 97 % of control | dose: 62.0 mg/kg/injection, schedule: Q01DX Z (ip), vehicle: methylcellulose (MC) 92 % of control

Cc1cc(=S)cc(C)o1
inactive: dose: 100.0 mg/kg/injection, schedule: Q04DX002 (ip), vehicle: gum acacia 93 % of control | dose: 200.0 mg/kg/injection, schedule: Q04DX002 (ip), vehicle: gum acacia 109 % of control

CCCCCCCCCCCCCCCCCC(=O)N/N=C/c1ccccc1
inactive: dose: 100.0 mg/kg/injection, schedule: Q01DX009 (ip), vehicle: other 91 % of control | dose: 200.0 mg/kg/injection, schedule: Q01DX009 (ip), vehicle: other 89 % of control | dose: 400.0 mg/kg/injection, schedule: Q01DX009 (ip), vehicle: other 105 % of control

CCCC/C=C/CCCC
inactive: dose: 75.0 mg/kg/injection, schedule: Q01DX009 (ip), vehicle: saline 100 % of control | dose: 300.0 mg/kg/injection, schedule: Q01DX009 (ip), vehicle: saline 86 % of control

Source: PubChem BioAssay AID248 (DTP/NCI, 2004)
